The values below come from patent US20170334899A1, “AMINO-SUBSTITUTED ISOTHIAZOLES” (Bayer Pharma Aktiengesellschaft, priority 2014, published 2017).

Each structure is given as a SMILES string. A value given as a limit tells only on which side of the number the result lay.

This assay concerns the target T1, human kinase Mps-1 (Homo sapiens, UniProt P33981).
T1 construct: N-terminally GST-tagged human full length recombinant Mps-1 kinase; GST (N); purchased Invitrogen, Karslruhe, Germany PV4071
T1 sequence (P33981 1-857): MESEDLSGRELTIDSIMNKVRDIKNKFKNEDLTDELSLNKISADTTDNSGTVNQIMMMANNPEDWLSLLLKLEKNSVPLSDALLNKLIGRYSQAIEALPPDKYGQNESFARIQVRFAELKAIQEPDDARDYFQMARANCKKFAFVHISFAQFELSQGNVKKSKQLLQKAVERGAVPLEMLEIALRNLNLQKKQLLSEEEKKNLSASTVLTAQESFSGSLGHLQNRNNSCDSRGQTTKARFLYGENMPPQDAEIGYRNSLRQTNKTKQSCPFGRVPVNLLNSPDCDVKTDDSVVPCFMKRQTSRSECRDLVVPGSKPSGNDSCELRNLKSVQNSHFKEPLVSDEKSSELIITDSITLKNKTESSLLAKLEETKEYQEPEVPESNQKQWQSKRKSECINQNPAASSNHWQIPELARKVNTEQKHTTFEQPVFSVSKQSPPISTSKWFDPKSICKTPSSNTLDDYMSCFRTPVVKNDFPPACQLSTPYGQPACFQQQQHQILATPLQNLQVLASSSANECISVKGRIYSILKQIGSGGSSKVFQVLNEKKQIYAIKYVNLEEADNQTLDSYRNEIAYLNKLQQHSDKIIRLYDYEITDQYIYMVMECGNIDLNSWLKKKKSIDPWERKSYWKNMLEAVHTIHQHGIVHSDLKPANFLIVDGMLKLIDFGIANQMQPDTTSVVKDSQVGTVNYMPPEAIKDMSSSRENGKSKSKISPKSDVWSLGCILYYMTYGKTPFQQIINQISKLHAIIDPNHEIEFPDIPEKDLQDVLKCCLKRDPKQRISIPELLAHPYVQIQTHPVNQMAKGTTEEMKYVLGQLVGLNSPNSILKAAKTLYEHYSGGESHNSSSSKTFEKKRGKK
The assay is described as follows: Mps-1 kinase assay (TR-FRET). Type of assay: biochemical. Conditions: Mps-1 TR-FRET kinase assay; avg; read-out: Mps1 avg (IC50 [mol/l]). The procedure, abridged: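 Inhibition normalised between uninhibited reaction (0%) and enzyme-free wells (100%), using the blank-corrected TR-FRET 665/620 nm ratio after EDTA stop. Reaction: ~0.5 nM GST-Mps-1 full length, 10 μM ATP, 1 μM biotin-peptide, 60 min at 22 °C, after 15 min compound pre-binding, pH 7.7.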
For orientation: In TR-FRET formats the signal depends on donor and acceptor labels being close together.
Consider `Cc1nsc(Nc2cc(C#N)ccn2)c1C(=O)Nc1ccc(OC2CCCN(C(=O)OC(C)(C)C)C2)nc1` (stereo not drawn) [Example 34, tert-Butyl 3({5-[({5-[(4-cyanopyridin-2-yl)amino]-3-methyl-1,2-thiazol-4-yl}-carbonyl)amino]pyridin-2-yl}oxy)piperidine-1-carboxylate], for which the IC50 was at least 20 µM.
For `Cc1nsc(Nc2cnc(C(F)(F)F)cn2)c1C(=O)Nc1ccc(N2CCN(CC(F)F)CC2)nc1` [Example 359, N-{6-[4-(2,2-difluoroethyl)piperazin-1-yl]pyridin-3-yl}-3-methyl-5-{[5-(trifluoromethyl)pyrazin-2-yl]amino}-1,2-thiazole-4-carboxamide] the value was over 20 µM; for `CCN1CC[C@H](Oc2ccc(NC(=O)c3c(C)nsc3Nc3cnc(C(F)(F)F)cn3)cn2)[C@@H](F)C1` [Example 365, N-(6-{[(3S,4S)-1-ethyl-3-fluoropiperidin-4-yl]oxy}pyridin-3-yl)-3-methyl-5-{[5-(trifluoromethyl)pyrazin-2-yl]amino}-1,2-thiazole-4-carboxamide], over 20 µM.
Then `Cc1nsc(Nc2cnc(C(F)(F)F)cn2)c1C(=O)Nc1ccc(N2CCN(CCC(F)(F)F)CC2)nc1` [Example 361, 3-methyl-5-{[5-(trifluoromethyl)pyrazin-2-yl]amino}-N-{6-[4-(3,3,3-trifluoropropyl)piperazin-1-yl]pyridin-3-yl}-1,2-thiazole-4-carboxamide], with over 20 µM; and `Cc1nsc(Nc2cnc(C(F)(F)F)cn2)c1C(=O)Nc1ccc(F)c(OCC2CCCN(CCC(F)(F)F)C2)c1` (stereo not drawn) [Example 338, N-(4-fluoro-3-{[1-(3,3,3-trifluoropropyl)piperidin-3-yl]methoxy}phenyl)-3-methyl-5-{[5-(trifluoromethyl)pyrazin-2-yl]amino}-1,2-thiazole-4-carboxamide], with at least 20 µM.
For `Cc1nsc(Nc2cnc(C(F)(F)F)cn2)c1C(=O)Nc1ccc(OCCNCCC(F)(F)F)nc1` [Example 323, 3-methyl-5-{[5-(trifluoromethyl)pyrazin-2-yl]amino}-N-(6-{2-[(3,3,3-trifluoropropyl)amino]ethoxy}pyridin-3-yl)-1,2-thiazole-4-carboxamide] the value was at least 20 µM; for `CCN1CC[C@@H](Oc2ccc(NC(=O)c3c(C)nsc3Nc3cnc(C(F)(F)F)cn3)cn2)[C@H](F)C1` [Example 369, N-(6-{[(3R,4R)-1-ethyl-3-fluoropiperidin-4-yl]oxy}pyridin-3-yl)-3-methyl-5-{[5-(trifluoromethyl)pyrazin-2-yl]amino}-1,2-thiazole-4-carboxamide], over 20 µM.
As for `Cc1nsc(Nc2cnc(C(F)(F)F)cn2)c1C(=O)Nc1ccc(O[C@H]2CCN(CC(F)F)C2)nc1` [Example 382, N-(6-{[(3S)-1-(2,2-difluoroethyl)pyrrolidin-3-yl]oxy}pyridin-3-yl)-3-methyl-5-{[5-(trifluoromethyl)pyrazin-2-yl]amino}-1,2-thiazole-4-carboxamide], the IC50 is over 20 µM.
As for `Cc1nsc(Nc2cnc(C(F)(F)F)cn2)c1C(=O)Nc1ccc(OCCN(C)CCF)nc1` [Example 348, N-(6-{2-[(2-fluoroethyl)(methyl)amino]ethoxy}pyridin-3-yl)-3-methyl-5-{[5-(trifluoromethyl)pyrazin-2-yl]amino}-1,2-thiazole-4-carboxamide], the IC50 is at least 20 µM.
